According to the supplement of paper PMC10307832:

Columns and labels:
Assay in all cases: relative viability (nuclei count vs DMSO), 5 days (fraction); higher = more cells survive
Dasatinib + Pemetrexed = compound: Cc1nc(Nc2ncc(C(=O)Nc3c(C)cccc3Cl)s2)cc(N2CCN(CCO)CC2)n1 [Dasatinib] + Nc1nc2[nH]cc(CCc3ccc(C(=O)N[C@@H](CCC(=O)O)C(=O)O)cc3)c2c(=O)[nH]1 [Pemetrexed] (partner 0.2 µM)
Summary of the method: (§1)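 Five library-drug doses in √10 steps were combined with a fixed anchor-drug dose, or a single drug was given alone, by pin tool to lung cancer cell lines in 1536-well plates the day after seeding. Nuclei were stained and counted after 5 days. Relative viability is the nuclei count in treated wells over that in vehicle wells, taken as the median of duplicate plates.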

Dasatinib + Trametinib = compound: Cc1nc(Nc2ncc(C(=O)Nc3c(C)cccc3Cl)s2)cc(N2CCN(CCO)CC2)n1 [Dasatinib] + CC(=O)Nc1cccc(-n2c(=O)n(C3CC3)c(=O)c3c(Nc4ccc(I)cc4F)n(C)c(=O)c(C)c32)c1 [Trametinib] (partner 0.02 µM)
Summary of the method: as §1

XMD13-2 + Dasatinib = compound: C1CC1C(=O)NC2=NNC3=C2C=CC(=C3)C4=CC(=CC=C4)C(=O)NC5CC5 [XMD13-2] + Cc1nc(Nc2ncc(C(=O)Nc3c(C)cccc3Cl)s2)cc(N2CCN(CCO)CC2)n1 [Dasatinib] (partner 0.075 µM)
Summary of the method: as §1

XMD13-2 + Bortezomib = compound: C1CC1C(=O)NC2=NNC3=C2C=CC(=C3)C4=CC(=CC=C4)C(=O)NC5CC5 [XMD13-2] + CC(C)C[C@H](NC(=O)[C@H](Cc1ccccc1)NC(=O)c1cnccn1)B(O)O [Bortezomib] (partner 0.002 µM)
Summary of the method: as §1

| Cell Line | relative viability (Dasatinib + Pemetrexed; first compound 0.005 µM) | relative viability (Dasatinib + Pemetrexed; first compound 0.01581 µM) | relative viability (Dasatinib + Pemetrexed; first compound 0.05 µM) | relative viability (Dasatinib + Pemetrexed; first compound 0.1581 µM) | relative viability (Dasatinib + Pemetrexed; first compound 0.5 µM) | relative viability (Dasatinib + Trametinib; first compound 0.005 µM) | relative viability (Dasatinib + Trametinib; first compound 0.01581 µM) | relative viability (Dasatinib + Trametinib; first compound 0.05 µM) | relative viability (Dasatinib + Trametinib; first compound 0.1581 µM) | relative viability (Dasatinib + Trametinib; first compound 0.5 µM) | relative viability (XMD13-2 + Dasatinib; first compound 0.05 µM) | relative viability (XMD13-2 + Dasatinib; first compound 0.1581 µM) | relative viability (XMD13-2 + Dasatinib; first compound 0.5 µM) | relative viability (XMD13-2 + Dasatinib; first compound 1.581 µM) | relative viability (XMD13-2 + Dasatinib; first compound 5 µM) | relative viability (XMD13-2 + Bortezomib; first compound 0.05 µM) | relative viability (XMD13-2 + Bortezomib; first compound 0.1581 µM) | relative viability (XMD13-2 + Bortezomib; first compound 0.5 µM) | relative viability (XMD13-2 + Bortezomib; first compound 1.581 µM) | relative viability (XMD13-2 + Bortezomib; first compound 5 µM) |
| --- | --- | --- | --- | --- | --- | --- | --- | --- | --- | --- | --- | --- | --- | --- | --- | --- | --- | --- | --- | --- |
| NCI-H1755 | 0.465 | 0.357 | 0.413 | 0.346 | 0.235 | 0.752 | 0.68 | 0.658 | 0.444 | 0.301 | 0.526 | 0.425 | 0.418 | 0.459 | 0.428 | 0.992 | 1.02 | 0.984 | 0.934 | 1.03 |
| HCC-15 | 0.198 | 0.207 | 0.209 | 0.203 | 0.205 | 0.354 | 0.336 | 0.332 | 0.253 | 0.207 | 0.775 | 0.66 | 0.715 | 0.614 | 0.423 | 1.12 | 0.994 | 1.11 | 0.981 | 1.05 |
| EMC-BAC-2 | 0.455 | 0.42 | 0.405 | 0.345 | 0.273 | 0.965 | 0.93 | 0.923 | 0.857 | 0.716 | 0.32 | 0.323 | 0.202 | 0.302 | 0.25 | 1.17 | 1.04 | 1.12 | 1.07 | 0.923 |
| NCI-H1734 | 0.377 | 0.416 | 0.387 | 0.376 | 0.341 | 0.665 | 0.59 | 0.612 | 0.599 | 0.512 | 0.493 | 0.419 | 0.484 | 0.373 | 0.428 | 1.35 | 0.954 | 0.887 | 0.729 | 0.768 |
| HOP-62 | 0.284 | 0.279 | 0.352 | 0.326 | 0.274 | 0.344 | 0.333 | 0.32 | 0.211 | 0.162 | 0.699 | 0.689 | 0.794 | 0.605 | 0.6 | 1.03 | 0.726 | 0.842 | 1.23 | 0.756 |
| SW 1573 | 0.889 | – | 0.742 | 0.607 | 0.548 | 0.531 | – | 0.475 | 0.33 | 0.433 | 0.593 | 0.458 | 0.514 | 0.454 | 0.397 | 0.974 | 1.03 | 1.03 | 0.977 | 0.947 |
| SK-LU-1 | 0.864 | 0.617 | 0.467 | 0.306 | 0.282 | 0.349 | 0.306 | 0.291 | 0.247 | 0.252 | 0.195 | 0.185 | 0.199 | 0.164 | 0.199 | 1.26 | 1.41 | 1.1 | 0.764 | 1.15 |
| NCI-H23 | 0.549 | 0.528 | 0.59 | 0.402 | 0.384 | 0.376 | 0.278 | 0.231 | 0.188 | 0.168 | 0.907 | 0.725 | 0.82 | 0.748 | 0.99 | 1.36 | 0.988 | 1.04 | 0.987 | 1.22 |
